In patent publication US11779628B2, “Use of cell-permeable peptide inhibitors of the JNK signal transduction pathway for the treatment of various diseases” (Xigen Inflammation Ltd., priority 2014, dated 2023):

Key:
[1] = tested on: Primary cultured macrophages; format: cell-based
Protocol: FIG. 24 Primary cultured macrophages were incubated with XG-102 (SEQ ID NO: 11) and extensively washed.

[2] = Phase I pharmacokinetics after single iv infusion; settings: human, in vivo
Protocol: The primary objective of the study was to assess the safety and tolerability of XG-102 following intravenous (iv) infusion of single escalating doses of XG-102 to healthy male volunteers. The secondary objective of the study was to assess the pharmacokinetics of XG-102 following iv infusion of single escalating doses of XG-102 to healthy male volunteers. Doses were administered as a 60 minute iv infusion. For control purposes, placebo iv infusion was administered to control subjects. This was a single-centre, randomized, double blind, placebo controlled, ascending single dose, sequential group study. […] Screening was performed in the 3-week period prior to dosing. Dosing occurred on Day 0 for each subject. […] Data for all subjects were included in the safety analyses; data for all subjects who received XG-102 were included in the pharmacokinetic analyses.

[3] = tested on: HCT 116 human colon tumor; experiment: Orthotopic HCT 116 human colon tumors in SCID mice; format: in vivo
Protocol: The objective of this study was to determine the effect of XG-102 on the growth of HCT 116 human colon tumor orthotopically xenografted in SCID mice.
For XG-102 administration the required amount of XG-102 was dissolved in the vehicle. The formulation was prepared according to the procedure detailed below. Concentrations were calculated and expressed taking into account test item purity and peptide content (multiplier coefficient was 74.6%). […] Diluted solutions were maintained on ice until use. Unused material was discarded. XG-102 was injected once daily at 0.1 and 1 mg/kg/inj. for a total of fourteen consecutive administrations (Q1Dx14). The routes of substance administrations were: injected subcutaneously (SC) at 5 ml/kg/inj., administered per os (PO) to mice by oral gavage via a cannula at 5 ml/kg/adm. The injection and administration volumes were adapted, according to the daily individual body weight of mice.
Twenty four to Forty-eight hours before tumor induction, 5 SCID mice were irradiated with a γ-source (1.8 Gy, Co^60, INRA, Dijon, France). Ten millions (10^7) HCT 116 cells suspended in 200 μl of RPMI medium were subcutaneously injected in the right flank of the 5 female SCJD mice. When tumors reached 1000-2000 mm^3, mice were sacrificed. Tumors were surgically excised from the animal to obtain fresh tumor fragments (20-30 mg) to be orthotopically implanted on the caecum of 75 mice at D0.
Twenty four to forty-eight hours before tumor implantation, 75 SCID mice were irradiated with a γ-source (1.8 Gy, Co^60, INRA, Dijon, France). The surgery was performed in the afternoon, with a minimum delay of two hours after the 7th XG-102 treatment. The abdomen from anaesthetized animal was opened through a median incision under aseptic conditions. The caecum was exteriorized and a small lesion was performed on caecum wall. The tumor fragment was placed on lesion and fixed with 6/0 sutures. The abdominal cavity was subsequently closed in 2 layers with 4/0 sutures.
At D-7, mice were randomized according to their body weight before treatment start to form 5 groups of 15 mice. The body weight of each group was not statistically different from the others (analysis of variance). The treatment began at D-7 according to following treatment schedule: • Mice from group 1 received one PO administration of XG-102 vehicle at 5 ml/kg/inj. once daily for a total of fourteen consecutive administrations (Q 1 Dx14), • Mice from group 2 received one PO administration of XG-102 at 0.1 mg//kg/inj. once daily for a total of fourteen consecutive administrations (QI Dx14), • Mice from group 3 received one PO administration of XG-102 at 1 mg//kg/inj. Once daily for a total of fourteen consecutive administrations (Q1Dx14), • Mice from group 4 received one SC injection of XG-102 at 0.1 mg//kg/inj. once daily for a total of fourteen successive administrations (Q1Dx14), • Mice from group 5 received one SC injection of XG-102 at 1 mg//kg/inj. once daily for a total of fourteen consecutive administrations (Q1Dx14):
Mice were monitored every day throughout the study for behaviour and survival. The body weight and tumor volume was monitored twice a week for all mice throughout the study. Isoflurane® Forene (Centravet, Bondoufle, France) was used to anaesthetize the animals before cell injection, surgery (orthotopic tumor implantation) and sacrifice.
Mice were sacrificed at D26. […] Invasion of liver by tumor nodules was evaluated macroscopically. […]

With `CC(C)C[C@@H](NC(=O)[C@@H](Cc1ccccc1)NC(=O)[C@H]1CCCN1C(=O)[C@@H](CCC(N)=O)NC(=O)[C@H](NC(=O)[C@H]1CCCN1C(=O)[C@@H](CCCNC(=N)N)NC(=O)[C@@H](CO)NC(=O)[C@@H](CCC(N)=O)NC(=O)[C@H](N)CC(=O)O)C(C)C)C(=O)N[C@H](CC(N)=O)C(=O)N[C@H](CC(C)C)C(=O)N[C@@H](C(=O)N[C@@H](C(=O)N1CCC[C@@H]1C(=O)N[C@H](CCCNC(=N)N)C(=O)N[C@H](CCCCN)C(=O)N1CCC[C@@H]1C(=O)N[C@H](CCCNC(=N)N)C(=O)N1CCC[C@@H]1C(=O)N1CCC[C@@H]1C(=O)N[C@H](CCCNC(=N)N)C(=O)N[C@H](CCCNC(=N)N)C(=O)N[C@H](CCCNC(=N)N)C(=O)N[C@H](CCC(N)=O)C(=O)N[C@H](CCCNC(=N)N)C(=O)N[C@H](CCCNC(=N)N)C(=O)N[C@H](CCCCN)C(=O)N[C@H](CCCCN)C(=O)N[C@H](CCCNC(=N)N)C(=O)NCC(=O)O)[C@H](C)O)[C@H](C)O` [XG-102] the incorporation into macrophages [1] was “is strongly incorporated into primary macrophages”, the “dose proportionality of AUC0-last” value [2] was “increases in a more than linear proportion with dose in the tested dose range” and the MRT ([2]; 80 ug/kg) was 1.02 (14.7) h. For the same molecule, the “percentage of death D0 to D9 (surgery complications)” value (shortened to “percentage of death D0 to D9”) ([3]; 1st treated group listed (PO 0.1 mg/kg, order assumed)) was 40%, the “percentage of death D0 to D9” value ([3]; 2nd treated group listed (PO 1 mg/kg, order assumed)) was 34% and the “percentage of death D0 to D9” value ([3]; 3rd treated group listed (SC 0.1 mg/kg, order assumed)) was 47%. For the same molecule, the “percentage of death D0 to D9” value ([3]; 4th treated group listed (SC 1 mg/kg, order assumed)) was 40% and the “MBWC at D-2” value ([3]; PO 0.1 mg/kg/adm.) was “+7.1±4.6%”.
